Data published in patent US9284297B2, “Halofuginone analogs for inhibition of tRNA synthetases and uses thereof” (President and Fellows of Harvard College, priority 2008, dated 2016).

Experiments:
[1] = system: Differentiation of primary naïve T-cells into Th17 cells; assay: Inhibition of Th17 differentiation of primary naïve T-cells by halofuginone analogs; assay type: cell-based, murine; set-up: key: “+++” vs. “++” vs. “+” in general denotes ˜4-fold differences in potency; “+++” vs. “++” vs. “+” in general denotes ˜4-fold differences in potency; “+++” vs. “++” vs. “+” in general denotes ˜4-fold differences in potency; “−” denotes no activity at any dose tested, up to 1000× the effective dose of halofuginone; conditions: T-cell receptor stimulation+IL-6+TGFb
Procedure: Naïve T-cells were stimulated to differentiate in the presence or absence of 10 nM halofuginone, with 1 mM of the indicated amino acids added to the medium, and stained for Th17 differentiation on day 4. Naïve murine T cells were activated in the presence or absence of TGFβ plus IL-6 as indicated, expanded in for 4 days and restimulated with PMA and ionomycin for intracellular cytokine staining. […] Bars indicate percentage of cells differentiation as Th17 as indicated by IL17 expression.
The effect of different halofuginone and analogs thereof on differentiation of naïve T-cells was assayed as described in legend for FIG. 4 above. Differentiation of primary naïve T-cells into Th17 cells following T-cell receptor stimulation+IL-6+TGFb. “+++” vs. “++” vs. “+” in general denotes ˜4-fold differences in potency. “−” denotes no activity at any dose tested, up to 1000× the effective dose of halofuginone.

[2] = system: translation of luciferase RNA in rabbit reticulocyte lysate; assay: Translation of a luciferase RNA reporter in rabbit reticulocyte lysate; assay type: biochemical; set-up: key to Translational inhibition: “+++” vs. “++” vs. “+” in general denotes ˜4-fold differences in potency; “+++” vs. “++” vs. “+” in general denotes ˜4-fold differences in potency; “+++” vs. “++” vs. “+” in general denotes ˜4-fold differences in potency; “−” denotes no activity at any dose tested, up to 1000× the effective dose of halofuginone
Procedure: To distinguish these possibilities, the effect of halofuginone on protein translation was examined in an in vitro system (rabbit reticulocyte lysate) in which amino acids are already present at levels adequate to support protein synthesis. […] Distinct tRNA synthetases catalyze the charging of individual tRNA species with their cognate amino acid. To determine which tRNA synthetase is inhibited by halofuginone, several amino acid mixtures were added to the in vitro translation system to determine which, if any, could reverse the inhibition of translation by halofuginone (FIG. 3). […] To examine whether proline could specifically rescue the effect of halofuginone in intact cells, the ability of each amino acid to reverse the effect of halofuginone on eIF2alpha phosphorylation in T-cells or to prevent halofuginone inhibition of Th17 differentiation was tested (FIG. 4). […] Inhibition of EPRS with compounds of the current invention can inhibit Th17 differentiation.
Translation in vitro was performed using rabbit reticulocyte lysates and luciferase mRNA as template. Translation was measured as arbitrary units of luciferase activity using a luminometer based luminescence assay. Log scale presentation of background-subtracted data is shown.
Inhibition of translation of luciferase RNA by halofuginone and analogs thereof was measured as described in FIG. 3 above. Results are shown of translation of a luciferase RNA reporter in a rabbit reticulocyte lysate. “+++” vs. “++” vs. “+” in general denotes ˜4-fold differences in potency. “−” denotes no activity at any dose tested, up to 1000× the effective dose of halofuginone.

[3] = system: CD4+ CD25− T cells (Th1, Th2, iTreg differentiation, proliferation, CD25), CD8+ T cells, B cells; assay: T and B cell activation, proliferation and Th1, Th2, iTreg differentiation; assay type: cell-based, murine
Procedure: Cytokines secreted into media supernatant were measured using the mouse Th1/Th2 cytometric bead array (CBA—BD Pharmingen) in accordance with manufacturers instructions.

[4] = system: SV-MES mesangial cells (GCN2 Thr898, eIF2alpha Ser51 phosphorylation); assay: AAR activation in cultured fibroblastic cells, western blot; assay type: cell-based; conditions: 20 nM; 2 hours
Excerpt: Duplicate cell samples are shown. […] Activated GCN2 phosphorylates eif2alpha at Ser 51, therefore this is an expected downstream outcome of AAR activation.

STAT3 phosphorylation = assay: Kinetics of STAT3 phosphorylation in developing Th17 cells; assay type: cell-based, murine; conditions: TGFβ plus IL-6; 5 nM or 10 nM HF
Procedure: FIG. 6. […] FIG. 6A is a set of representative histograms displaying the kinetics of STAT3 phosphorylation in developing Th17 cells treated with or without halofuginone. Resting naïve T cells (grey, shaded peak), T cells activated in the presence of TGFβ plus IL-6 (TGFβ/IL-6) treated with 10 nM MAZ1310 (light gray trace), 5 nM HF (medium gray trace), or 10 nM HF (dark gray trace). T cells were fixed at the indicated times and intracellular phospho-STAT3 staining was performed.
Th17 differentiation is synergistically regulated by TGFβ and the pro-inflammatory cytokines IL-6 and IL-21. […] Since STAT3 is the major transducer of IL-6 and IL-21 signaling, the kinetics of STAT3 phosphorylation in HF-treated T cells were examined.

[5] = system: Th17 differentiation of CD4+ CD25− T cells; assay: Th17 differentiation of CD4+ CD25− T cells (IL-17+ IFNγ− cells, intracellular cytokine staining)
Procedure: Purified CD4^+ CD25^− T cells were activated in vitro as previously described (Djuretic et al., Nat. Immunol. 8:145, 2007) using 0.3 μg/ml hamster anti-mouse CD3 (clone 145-2C11) (ATCC, Manassas, Va.) and 0.5 μg/ml hamster anti-mouse CD28 (BD Pharmingen, San Jose, Calif.). Activated cell cultures were differentiated using the following combinations of cytokines and antibodies: iTreg—recombinant human TGFβ1 (3 ng/ml—R&D systems, Minneapolis, Minn.), Th17-TGFβ1 (3 ng/ml) plus recombinant mouse IL-6 (30 ng/ml—R&D systems). […] Human IL-2 supernatant (National Cancer Institute) was used in culture at 0.01 U/ml and was added at 48 hours-post activation when T cells were split into tissue culture wells lacking CD3 and CD28 antibodies, with the exception of Th17 cultures that were maintained in the absence of exogenous IL-2. […] All reagents (see below) were added at the time of T cell activation and again at 48 hours post activation unless indicated otherwise.
For detection of intracellular cytokines in murine cells, cultured T or B cells were stimulated with 10 nM PMA (Sigma) and 1 mM ionomycin (Sigma) for 4-5 hours in the presence of 10 mM brefeldin A (Sigma). Stimulated cells were harvested, washed with PBS and fixed with PBS plus 4% paraformaldehyde at room temperature for 20 minutes. Cells were then washed with PBS, permeabilized with PBS supplemented with 1% BSA and 0.5% saponin (Sigma) at room temperature for 10 minutes before cytokine-specific antibodies were added and incubated with cells for an additional 20 minutes at room temperature. […] All stained cells were stored at 4° C. in PBS plus 1% paraformaldehyde prior to FACS analyses.
All cell surface staining was performed in FACS buffer (PBS/2% FBS/0.1% NaN3) and antibodies were incubated with cells on ice for 20-30 minutes. Cells were washed with FACS buffer and fixed with FACS buffer plus 1% paraformaldehyde prior to data acquisition.

SMILES: O=C(CC1NCCCC1O)Cn1cnc2cc(Br)c(Cl)cc2c1=O (centres unmarked) [Compound 1, 7-bromo-6-chloro-3-[3-(3-hydroxy-2-piperidinyl)-2-oxopropyl]-4(3H)-quinazolinone]
- Inhibition of Th17 differentiation [1]: +++
- inhibition of translation of luciferase ([2]; 400 nM): 5-6 orders of magnitude
- rescue of translation inhibition by added amino acids ([2]; 400 nM halofuginone, 1-2 mM amino acids): Addition of proline, either alone or in combination with phenylaline and serine, rescues inhibition of translation
- Translational inhibition ([2]; luciferase RNA reporter): +++
- concentration inducing general inhibition of T and B cell activation, proliferation, and effector function [3]: > 20 nM
- effect on T cell proliferation, CD25 upregulation, IL-2, TNF, IFNγ production ([3]; 1-10 nM): did not affect T cell proliferation, CD25 upregulation, or production of IL-2, TNF, or IFNγ
- effect on Th1, Th2, iTreg differentiation ([3]; polarizing cytokine conditions, IFNγ, IL-4, Foxp3 expression): failed to modulate Th1, Th2 or iTreg differentiation
- AAR activation (GCN2 Thr898 and eIF2alpha Ser51 phosphorylation) [4]: activates the AAR
- STAT3 phosphorylation (STAT3 phosphorylation): decreased the maintenance of STAT3 phosphorylation, beginning around 12 hours post activation
- rescue of inhibited Th17 differentiation by added amino acids ([5]; 10 nM halofuginone, 1 mM of the indicated amino acids): Proline, and no other added amino acid, rescues the inhibition of Th17 differentiation
- IC50 ([5]; Mus musculus, T-cell, 96 h, read-out: IC50, Th17 differentiation): 3.6 nM
